Structures are written as SMILES. “Also recorded” adds a separate entry of the source. Marks after values point to notes of the source that are not given here.

We go through one compound from US20070059339A1, “1-O-BETA-D-glucopyranosylgeraniol-10,5-olide and use thereof” (ISKRA INDUSTRY CO., LTD., priority 2005, published 2007).

Data set [1] in a line: Obesity ameliorating, lipid metabolism ameliorating and hypoglycemic action in mice bred with a high fat diet. The format is in vivo, ddY male SPF mice. From the text:
6 week-old ddY male SPF mice (Nippon .SLC, body weight: about 30 g) were pre-bred for 1 week, then, divided into two groups of a control group and an administration group (5 mice for each group). Each of the mice in both the groups was bred for 6 weeks with a high fat diet (lard 40%, corn starch 10%, granulated sugar 9%, mineral mix 4%, vitamin mix 1%, casein 29%, cellulose 5%, lactose 2%). For the mice in the administration group, a specimen solution prepared by dissolving the compound (I) in purified water was continuously administered for 6 weeks with a dose of 250 mg/kg once a day while allowing water-drinking, and the body weight was measured at a frequency of once a week, during the feeding period with the high fat diet. For the mice in the control group, purified water was administered for 6 weeks instead of the specimen solution while allowing water-drinking.
The average value of the body weight of mice in each group and the standard error thereof were measured, and a significant difference test (t-test) between both the groups was carried out.
On the other hand, after completion of the above-mentioned continuous administration allowing water-drinking for 6 weeks, serum was collected from each mouse and blood biochemical values were measured, and liver and fat were excised and the weights of them were measured, respectively. Using the respective measurement results, the average value and the standard error were measured for each group, and a significant difference test (t-test) was carried out between both the groups.

Data set [2] is described as follows: Oral administration for two weeks at 2500 mg/kg per day, observation of side effects. Type of data set: in vivo. As to conditions: ten ICR male mice, versus control group.
Data set [3] is described as follows: Hair growth ameliorating action on hair-removed back of mice, transdermal administration. Particulars: for Hair growth score versus control group (FIG. 9): 10 mg once a day. Type of data set: in vivo, C3H male mice. From the text:
6 week-old C3H male mice (Nippon SLC, body weight: about 30 g) were pre-bred for 1 week, then, divided into two groups of a control group and an administration group (4 mice for each group). Hair on the back of the mice in both groups was removed with an electric shaver, and hair growth effect was investigated. […] For the mice in the control group, 45% water-containing ethanol was transdermally administered instead of the specimen solution for 28 days.
For observation of hair growth condition, hair growth score and hair length were measured.
For measurement of hair growth score, the back of a mouse on which a specimen solution or 45% water-containing ethanol had been applied was visually observed, and based on the conditions directly after hair removal, a case of no change was endowed with 0 point, a case of color change to blue at a center portion on the back was endowed with 1 point, a case of color change from blue black to gray at a center portion on the back was endowed with 2 points, a case of observation of hair growth at a center portion on the back was endowed with 3 points, and a case of covering about 50% at a center portion on the back with back hair and recovery of color before hair removal at a center portion on the back was endowed with 4 points. The score average value and the standard error of the mice in both the groups were measured. Since there was observed […] irregularity in hair growth score between the control group and the administration group, the Mann-Whitney U-test was carried out as a significant difference test between both groups.
On the other hand, for measurement of hair length, part of hair was collected every one week, then, 10 hairs were selected randomly while removing extremely longer hairs and extremely shorter hairs, and lengths of them were measured by a microscope.

The mark [4] stands for this setting: 250 mg/kg once a day for 6 weeks, average +/- standard error of five mice.
Where [5] appears, read: serum after 6 weeks, 250 mg/kg once a day, average +/- standard error of five mice.

`CC(C)=CC1C/C(=C/CO[C@@H]2OC(CO)[C@@H](O)C(O)C2O)C(=O)O1` (stereo partly drawn) [compound (I), 1-O-β-D-glucopyranosylgeraniol-10,5-olide]: in data set [1] (setting [4]), the “Weight of fat, around kidney” value was determined as 0.035 ± 0.010 g and the “Weight of fat, around posterior abdominal wall” value came out at 0.186 ± 0.096 g. The “Body weight versus control group (FIG. 8)” value in data set [1] (250 mg/kg once a day for 6 weeks, weighed once a week) is listed as “the body weight transited at a lower level”. For the same compound, in data set [1] (after 6 weeks, 250 mg/kg once a day, average +/- standard error of five mice), the “Blood biochemical value, blood glucose level” value is 183 +/− 35.7** mg/dL. Further, the Weight of liver in data set [1] (compound 250 mg/kg once a day for 6 weeks, average +/- standard error of five mice) came out at 1.124 ± 0.124 g. Moreover, in data set [1] (setting [5]), the “Blood biochemical value, total cholesterol” value came out at 118 ± 22.3 mg/dL and the “Blood biochemical value, triglyceride” value was 26 ± 15.8 mg/dL. Further, the Side effect result in data set [2] was “did not provide a recognizable side effect; also recorded: no side effect was recognized at all”. Further, in data set [3] (day 7 to day 17 after transdermal administration), the “Hair growth score versus control group (FIG. 9)” value is “tended to be higher”. Also, in data set [3] (days 13, 15 and 16 after transdermal administration, Mann-Whitney U-test), the “Hair growth score versus control group (FIG. 9)” value is given as “significantly higher”. Also, the “Hair length versus control group” value in data set [3] (hair collected every one week, 10 hairs measured by microscope, 10 mg transdermally once a day, data not shown) is given as “no significant difference”.
